Assay [1] deals with T1, QPCTL (Homo sapiens (Human), UniProt Q9NXS2). Kind of assay: Inhibition of Cellular QPCTL Activity - Imaging Assay, CC2C6 anti-CD47 staining of DLD-1 cells. In kind it is cell-based. The note with it: 72 hours, CC2C6 anti-CD47 high-content imaging. On the procedure: Inhibition of Cellular QPCTL Activity—Imaging Assay
The cells were incubated for 72 hours at 37° C. and 5% CO2. […] After primary antibody staining, the cells were fixed with 4% paraformaldehyde in the incubation buffer for 15 minutes at room temperature. […] Cells were analyzed on a ImageXpress Pico Automated Cell Imaging System (Molecular Devices) using 10× objective (3×3 fields).
Target sequence in this assay (Q9NXS2 whole entry): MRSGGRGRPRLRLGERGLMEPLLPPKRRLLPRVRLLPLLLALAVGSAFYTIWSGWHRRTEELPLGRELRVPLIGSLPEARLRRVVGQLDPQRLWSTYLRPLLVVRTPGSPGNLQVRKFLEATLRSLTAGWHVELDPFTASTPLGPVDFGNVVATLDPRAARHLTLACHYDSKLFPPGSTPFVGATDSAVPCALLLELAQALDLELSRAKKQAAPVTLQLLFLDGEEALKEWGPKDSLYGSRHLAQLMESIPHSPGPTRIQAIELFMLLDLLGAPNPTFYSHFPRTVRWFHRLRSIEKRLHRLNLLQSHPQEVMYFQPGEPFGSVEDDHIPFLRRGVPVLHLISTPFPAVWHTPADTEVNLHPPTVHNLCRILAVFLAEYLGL

Assay [2] addresses T1, QPCTL. Kind of assay: QPCTL Enzymatic Activity Assay (coupled-enzyme fluorescent assay, H-Gln-AMC substrate). To be noted: recombinant truncated human QPCTL 10-12 nM, 10 μM H-Gln-AMC; read-out: QPCTL Inhibition IC50. Type of assay: biochemical.
Target sequence in this assay (Q9NXS2 53-382): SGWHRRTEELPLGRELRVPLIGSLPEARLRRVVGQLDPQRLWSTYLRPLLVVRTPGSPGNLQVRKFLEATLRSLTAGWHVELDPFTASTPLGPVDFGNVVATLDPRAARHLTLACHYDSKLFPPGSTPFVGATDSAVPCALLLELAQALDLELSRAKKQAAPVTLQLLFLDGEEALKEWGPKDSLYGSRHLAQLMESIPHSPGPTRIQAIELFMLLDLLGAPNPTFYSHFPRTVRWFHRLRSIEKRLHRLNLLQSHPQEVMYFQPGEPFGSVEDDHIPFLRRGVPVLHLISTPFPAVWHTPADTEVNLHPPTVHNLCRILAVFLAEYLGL
Assay [3] has as its target QPCT (rhQPCT) (Homo sapiens (Human), UniProt Q16769). Kind of assay: QPCT Enzymatic Activity Assay (coupled-enzyme fluorescent assay, H-Gln-AMC substrate). Type of assay: biochemical. The note with it: rhQPCT 10-12 nM, 10 μM H-Gln-AMC; read-out: QPCT Inhibition IC50. Summed up: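 Coupled assay: recombinant human QPCT converts H-Gln-AMC (10 μM final) to pyroglutamyl-AMC, 60 min at 37 °C, stopped by boiling; PGPEP-1 then releases AMC.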

Sequence of QPCT (rhQPCT) (Q16769 29-361): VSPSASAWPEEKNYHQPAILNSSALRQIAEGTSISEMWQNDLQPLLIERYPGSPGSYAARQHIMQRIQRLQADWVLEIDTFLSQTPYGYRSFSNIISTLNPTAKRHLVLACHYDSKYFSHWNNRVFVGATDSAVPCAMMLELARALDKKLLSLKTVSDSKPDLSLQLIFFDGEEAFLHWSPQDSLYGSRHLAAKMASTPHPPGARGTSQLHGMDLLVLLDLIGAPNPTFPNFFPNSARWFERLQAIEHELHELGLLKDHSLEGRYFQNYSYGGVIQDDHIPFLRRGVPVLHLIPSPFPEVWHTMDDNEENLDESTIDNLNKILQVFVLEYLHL

`CNCCN(C)c1ccc(-c2ccc(F)nc2)c(N2CCC(c3nncn3C)CC2)c1C#N` [Example 83, 3-(6-fluoropyridin-3-yl)-6-(methyl(2-(methylamino)ethyl)amino)-2-(4-(4-methyl-4H-1,2,4-triazol-3-yl)piperidin-1-yl)benzonitrile]: the IC50 (in general, the concentration needed to halve the response being measured) was 1000 to 10000 nM in assay [1], less than 100 nM in assay [2] and less than 100 nM in assay [3].

As to `COc1ccc(-c2cnc3nccn3c2)c(N2CCC(c3nncn3C)CC2)c1C#N` [Example 94, 3-(imidazo[1,2-a]pyrimidin-6-yl)-6-methoxy-2-(4-(4-methyl-4H-1,2,4-triazol-3-yl)piperidin-1-yl)benzonitrile], the IC50 in assay [1] is 1000 to 10000 nM; in assay [2], less than 100 nM; in assay [3] it was less than 100 nM.

Turning to `Cn1cnnc1C1CCN(c2c(-c3ccc(F)nc3)ccc(NS(C)(=O)=O)c2C#N)CC1` [Example 84, N-(2-cyano-4-(6-fluoropyridin-3-yl)-3-(4-(4-methyl-4H-1,2,4-triazol-3-yl)piperidin-1-yl)phenyl)methanesulfonamide], the values for the half-maximal inhibitory concentration (IC50) in assay [1], in assay [2] and in assay [3] were more than 10000 nM, less than 100 nM and less than 100 nM, respectively.

`Cn1cnnc1C1CCN(c2c(-c3ccc(F)nc3)ccc(N)c2C#N)CC1` [Example 78, 6-amino-3-(6-fluoropyridin-3-yl)-2-(4-(4-methyl-4H-1,2,4-triazol-3-yl)piperidin-1-yl)benzonitrile]: the IC50 in assay [1], in assay [2] and in assay [3] was less than 100 nM throughout.

As for `Cc1ccc(-c2ccc(F)nc2)c(N2CCC(c3nncn3C)CC2)c1C#N` [Example 67, 3-(6-fluoropyridin-3-yl)-6-methyl-2-(4-(4-methyl-4H-1,2,4-triazol-3-yl)piperidin-1-yl)benzonitrile], the IC50 in assay [1], in assay [2] and in assay [3] was less than 100 nM in each case.

For `CN1CCC(Oc2ccc(-c3ccc(F)nc3)c(N3CCC(c4nncn4C)CC3)c2C#N)C1` (single isomer, unassigned) [Example 91, 3-(6-fluoropyridin-3-yl)-2-(4-(4-methyl-4H-1,2,4-triazol-3-yl)piperidin-1-yl)-6-((1-methylpyrrolidin-3-yl)oxy)benzonitrile], the values for the concentration for half-maximal inhibition (IC50) in assay [1], in assay [2] and in assay [3] were 100 to 1000 nM, less than 100 nM and less than 100 nM, respectively.

As to `Cc1cc(-c2ccc(OCCN(C)C)c(C#N)c2N2CCC(c3nncn3C)CC2)cnn1` [Example 62, 6-(2-(dimethylamino)ethoxy)-2-(4-(4-methyl-4H-1,2,4-triazol-3-yl)piperidin-1-yl)-3-(6-methylpyridazin-4-yl)benzonitrile], the IC50 in assay [1] is more than 10000 nM; in assay [2] it was less than 100 nM; in assay [3], 100 to 1000 nM.

Take `Cc1cc(-c2cccc(C#N)c2N2CCC(c3nncn3C)CC2)cnn1` [Example 46, 2-(4-(4-methyl-4H-1,2,4-triazol-3-yl)piperidin-1-yl)-3-(6-methylpyridazin-4-yl)benzonitrile]: the IC50 in assay [1] was 100 to 1000 nM; in assay [2] it was less than 100 nM; in assay [3], less than 100 nM.

In the case of `Cn1cnnc1C1CCN(c2c(-c3ccc(F)nc3)ccc(N3CC(O)C3)c2C#N)CC1` [Example 95, 3-(6-fluoropyridin-3-yl)-6-(3-hydroxyazetidin-1-yl)-2-(4-(4-methyl-4H-1,2,4-triazol-3-yl)piperidin-1-yl)benzonitrile], the IC50 in assay [1], in assay [2] and in assay [3] was less than 100 nM each time.

As for `Cn1cnnc1C1CCN(c2c(-c3ccc(F)nc3)ccc(OCC3CC3)c2C#N)CC1` [Example 77, 6-(cyclopropylmethoxy)-3-(6-fluoropyridin-3-yl)-2-(4-(4-methyl-4H-1,2,4-triazol-3-yl)piperidin-1-yl)benzonitrile], the IC50 in assay [1], in assay [2] and in assay [3] was less than 100 nM each time.

For the compound `Cn1cnnc1C1CCN(c2c(C#N)cccc2-c2cncc(O)c2)CC1` [Example 120, 3-(5-hydroxypyridin-3-yl)-2-(4-(4-methyl-4H-1,2,4-triazol-3-yl)piperidin-1-yl)benzonitrile], the concentration for half-maximal inhibition (IC50) in assay [1], in assay [2] and in assay [3] was less than 100 nM in each case.

As for `Cn1cnnc1C1CCN(c2c(C#N)cccc2-c2cnc3nccn3c2)CC1` [Example 93, 3-(imidazo[1,2-a]pyrimidin-6-yl)-2-(4-(4-methyl-4H-1,2,4-triazol-3-yl)piperidin-1-yl)benzonitrile], the IC50 was 100 to 1000 nM in assay [1], less than 100 nM in assay [2] and less than 100 nM in assay [3].

Consider `Cn1cnnc1C1CCN(c2c(-c3ccc(F)nc3)ccc(-c3ccnc(N)c3)c2C#N)CC1` [Example 44, 6-(2-aminopyridin-4-yl)-3-(6-fluoropyridin-3-yl)-2-(4-(4-methyl-4H-1,2,4-triazol-3-yl)piperidin-1-yl)benzonitrile], for which the IC50 in assay [1], in assay [2] and in assay [3] was less than 100 nM each time.

As to `Cn1cnnc1C1CCN(c2c(-c3ccc(F)nc3)ccc(-c3cnn(C4CCNCC4)c3)c2C#N)CC1` [Example 42, 3-(6-fluoropyridin-3-yl)-2-(4-(4-methyl-4H-1,2,4-triazol-3-yl)piperidin-1-yl)-6-(1-(piperidin-4-yl)-1H-pyrazol-4-yl)benzonitrile], the IC50 was 100 to 1000 nM in assay [1], less than 100 nM in assay [2] and less than 100 nM in assay [3].

For `Cn1cnnc1C1CCN(c2c(-c3ccc(F)nc3)ccc(OC3CCOC3)c2C#N)CC1` (single isomer, unassigned) [Example 88, 3-(6-fluoropyridin-3-yl)-2-(4-(4-methyl-4H-1,2,4-triazol-3-yl)piperidin-1-yl)-6-((tetrahydrofuran-3-yl)oxy)benzonitrile], the IC50 in assay [1], in assay [2] and in assay [3] was less than 100 nM throughout.

Turning to `Cn1cnnc1C1CCN(c2c(C#N)cccc2-c2ccc3c(c2)COB3O)CC1` [Example 123, 3-(1-hydroxy-1,3-dihydrobenzo[c][1,2]oxaborol-5-yl)-2-(4-(4-methyl-4H-1,2,4-triazol-3-yl)piperidin-1-yl)benzonitrile], the values for the IC50 in assay [1], in assay [2] and in assay [3] were 1000 to 10000 nM, less than 100 nM and less than 100 nM, respectively.

`CN(C)CCn1cc(-c2ccc(-c3ccc(F)nc3)c(N3CCC(c4nncn4C)CC3)c2C#N)cn1` [Example 60, 6-(1-(2-(dimethylamino)ethyl)-1H-pyrazol-4-yl)-3-(6-fluoropyridin-3-yl)-2-(4-(4-methyl-4H-1,2,4-triazol-3-yl)piperidin-1-yl)benzonitrile]: the IC50 in assay [1], in assay [2] and in assay [3] was less than 100 nM each time.

On to `CN1CCN(c2ccc(-c3ccc(F)nc3)c(N3CCC(c4nncn4C)CC3)c2C#N)CC1` [Example 80, 3-(6-fluoropyridin-3-yl)-2-(4-(4-methyl-4H-1,2,4-triazol-3-yl)piperidin-1-yl)-6-(4-methylpiperazin-1-yl)benzonitrile], for which the IC50 in assay [1], in assay [2] and in assay [3] was less than 100 nM throughout.

As to `Cn1cnnc1C1CCN(c2c(C#N)ccnc2-c2ccc(F)nc2)CC1` [Example 133, 6′-fluoro-3-(4-(4-methyl-4H-1,2,4-triazol-3-yl)piperidin-1-yl)-[2,3′-bipyridine]-4-carbonitrile], the IC50 in assay [1], in assay [2] and in assay [3] was less than 100 nM in each case.

As for `CN(C)CCNc1ccc(-c2ccc(F)nc2)c(N2CCC(c3nncn3C)CC2)c1C#N` [Example 51, 6-((2-(dimethylamino)ethyl)amino)-3-(6-fluoropyridin-3-yl)-2-(4-(4-methyl-4H-1,2,4-triazol-3-yl)piperidin-1-yl)benzonitrile], the IC50 in assay [1] was 100 to 1000 nM; in assay [2] it was less than 100 nM; in assay [3] it was less than 100 nM.

As to `Cn1cnnc1C1CCN(c2c(-c3ccc(F)nc3)ccc(N3CCNCC3)c2C#N)CC1` [Example 85, 3-(6-fluoropyridin-3-yl)-2-(4-(4-methyl-4H-1,2,4-triazol-3-yl)piperidin-1-yl)-6-(piperazin-1-yl)benzonitrile], the figures for the IC50 in assay [1], in assay [2] and in assay [3] were 1000 to 10000 nM, less than 100 nM and less than 100 nM, respectively.

For `Cc1cc(C#N)c(N2CCC(c3nncn3C)CC2)c(-c2ccc(F)nc2)c1` [Example 66, 3-(6-fluoropyridin-3-yl)-5-methyl-2-(4-(4-methyl-4H-1,2,4-triazol-3-yl)piperidin-1-yl)benzonitrile], the IC50 in assay [1], in assay [2] and in assay [3] was less than 100 nM each time.

As for `COc1cc(F)c(-c2ccc(F)nc2)c(N2CCC(c3nncn3C)CC2)c1C#N` [Example 107, 4-fluoro-3-(6-fluoropyridin-3-yl)-6-methoxy-2-(4-(4-methyl-4H-1,2,4-triazol-3-yl)piperidin-1-yl)benzonitrile], the IC50 in assay [1], in assay [2] and in assay [3] was less than 100 nM in each case.

For the compound `Cn1ccc(-c2ccc(-c3ccc(F)nc3)c(N3CCN(c4nncn4C)CC3)c2C#N)n1` [Example 122, 3-(6-fluoropyridin-3-yl)-6-(1-methyl-1H-pyrazol-3-yl)-2-(4-(4-methyl-4H-1,2,4-triazol-3-yl)piperazin-1-yl)benzonitrile], the IC50 in assay [1], in assay [2] and in assay [3] was less than 100 nM each time.
